Results: patent publication US5096909A, “Fucosidase inhibitor” (Monsanto Company, priority 1990, dated 1992)

Legend:
pKa (Table 1) = format: physicochemical
[1] = tested on: N-acetyl-β-D-hexosaminidase; experiment: Specificity: inhibition of other glycosidases in human liver extract at 1 mM, N-acetyl-β-D-hexosaminidase; format: biochemical; details: 4-umbelliferyl glycoside substrate 0.5 mM, optimal pH
Experimental: Tissue Post-mortem human liver, which had been stored at -20° C. until required was homogenized in deionized water (50%, w/v) in a Potter-Elvehjem homogenizer and then centrifuged at 37,000 g for 30 min in an MSE 18 centrifuge. The resultant supernatant was used as the source of human glycosidases. A lyophilized extract of liver from Charonia lampas was obtained from Seikagaku Kogyo Co., Japan for the isolation of α-L-fucosidase by the published procedure of Iijima and Egami, J. Biochem. 70, 75-78 (1971).
Enzyme Assays The glycosidase activities in an extract of human liver were assayed by using the appropriate fluorigenic 4-umbelliferyl glycoside substrate (Koch-Light, Haverhill, Suffolk, U.K.) with a concentration of 0.5 mM at the optimal pH for each enzyme [Burditt et al., Biochem. J. 189, 467-473 (1980)]. The specificity of the inhibitors was determined by assaying the glycosidases in the presence of and absence of a 1 mM solution of each compound. The nature of the inhibition of human α-L-fucosidase, the value of Ki determined by using the Dixon graphical procedure and the effect of pH on the inhibition were investigated as described previously by Al Daher et al., Biochem. J. 258, 613-615 (1989). […]

[2] = tested on: mammalian α-L-fucosidases; details: cited from earlier work
[3] = tested on: human immunodeficiency virus; details: cited from earlier work
α-glucosidase = details: cited from earlier work
digestive α-glucosidase = details: cited from earlier work

`C[C@H]1N[C@@H](CO)[C@@H](O)[C@H](O)[C@@H]1O` [(6), 2,6-Imino-2,6,7-trideoxy-D-glycero-D-gluco-heptitol] gave a pKa (pKa (Table 1)) of 7.7.
In the case of `C[C@@H]1NC[C@@H](O)[C@H](O)[C@@H]1O` [DFJ, 1,5-Dideoxy-1,5-imino-L-fucitol], the “Other specificities (% inhibition at 1 mM): N-acetyl-β-D-hexosaminidase” value [1] is given as 59%, the “inhibition of a number of mammalian α-L-fucosidases” value [2] is given as “very powerful and highly specific inhibitor of a number of mammalian α-L-fucosidases” and the pKa (pKa (Table 1)) is given as 8.4.
For `OC[C@H]1NC[C@H](O)[C@@H](O)[C@@H]1O` [deoxynojirimycin (1), deoxynojirimycin], the “inhibition of human immunodeficiency virus synctium formation” value ([3]; syncytium formation) is listed as “inhibit human immunodeficiency virus synctium formation”, the “inhibition of human immunodeficiency virus replication” value ([3]; virus replication) is listed as “inhibit human immunodeficiency virus synctium formation and virus replication” and the α-glucosidase inhibition (α-glucosidase) is listed as “α-glucosidase inhibitor”.
In the case of `OC[C@H]1N[C@H](CO)[C@@H](O)[C@H](O)[C@H]1O` [α-Homonojirimycin], the “inhibition of digestive α-glucosidase activity” value (digestive α-glucosidase) is given as “potent inhibitor of digestive α-glucosidase activity”.
